Assay [1] deals with MMP13 (Homo sapiens, UniProt P45452). In words: MMP13 inhibition (Table 1). Format: biochemical. As to conditions: read-out: percentage inhibition MMP13.
In assay [2] the test system is IL-2-induced peritoneal recruitment of lymphocytes. In words: IL-2-induced peritoneal recruitment of lymphocytes. As to conditions: Mus musculus, Lymphocyte, po; 3 mg/kg p.o., 15 min prior to IL-2; mice; 24 h after IL-2. Format: in vivo, C3H/HEN mice. The protocol:
Administration of IL-2 intraperitoneally causes migration of lymphocytes into the intraperitoneal cavity. This is a model for the cellular migration that occurs during inflammation.
C3H/HEN mice (Elevage Janvier, France) were intraperitoneally injected with IL-2 (Serono Pharmaceutical Research Institute, 20 μg/kg, in saline). Compounds of the invention were suspended in 0.5% carboxymethylcellulose (CMC)/0.25% tween-20 and were administered by s.c. or p.o. route (10 ml/kg) 15 min prior to administration of IL-2.
Twenty-four hours after administration of IL-2, peritoneal white blood cells were collected by 3 successive lavages of the peritoneal cavity with 5 ml phosphate buffered saline (PBS)-1 mM EDTA (+4° C.). The suspension was centrifuged (1700 g×10 min at +4° C.). The resulting pellet was suspended in 1 ml PBS-1 mM EDTA.
Lymphocytes were identified and counted using a Beckman/Coulter counter.
The animals were divided into 6 groups (6 mice each group):
Group 1: (baseline) received 0.5% CMC/0.25% tween-20 (vehicle of compound of the invention) and saline (vehicle of IL-2);
Group 2: (control IL-2) received 0.5% CMC/0.25% tween-20 and injection of IL-2;
Group 3: Experimental group (Compound of the invention Dose 1) received a compound of the invention and injection of IL-2;
Group 4: Experimental group (Compound of the invention Dose 2) received a compound of the invention and injection of IL-2;
Group 5: Experimental group (Compound of the invention Dose 3) received a compound of the invention and injection of IL-2;
Group 6: Reference group received reference compound dexamethasone and injection of IL-2.
Inhibition of lymphocyte recruitment was calculated as follows:
Where Ly 1=Number of lymphocytes in group 1 (E3/μl), Ly 2=Number of lymphocytes in group 2 (E3/μl), Ly X=Number of lymphocytes in group X (3-5) (E3/μl).

Experimental findings from patent publication US7879876B2, “Sulfonamide derivatives and use thereof for the modulation of metalloproteinases” (Merck Serono SA, priority 2005, dated 2011) are described below.

Regarding `O=CN(O)C(CCc1ccccc1)CS(=O)(=O)N1CCc2ccccc2C1` (centres unmarked) [Example 1, N-{1-[(3,4-dihydroisoquinolin-2(1H)-ylsulfonyl)methyl]-3-phenylpropyl}-N-hydroxyformamide], in assay [1], the inhibition (as a rule, how much of the control response was suppressed) at 0.1 µM turned out to be 15% and the inhibition at 5 µM turned out to be 97%.

`CCCCCC(CS(=O)(=O)N1CCc2ccccc2C1)N(O)C=O` (centres unmarked) [Example 3, N-{1-[(3,4-dihydroisoquinolin-2(1H)-ylsulfonyl)methyl]hexyl}-N-hydroxyformamide]: in assay [1], the inhibition at 0.1 µM was found to be 6% and the inhibition at 5 µM came to 98%.

As to `O=CN(O)C(CS(=O)(=O)N1CCc2ccccc2C1)C1CC1` (centres unmarked) [Example 4, N-[1-cyclopropyl-2-(3,4-dihydroisoquinolin-2(1H)-ylsulfonyl)ethyl]-N-hydroxyformamide], in assay [1], the inhibition at 0.1 µM turned out to be 0% and the inhibition at 5 µM worked out at 80%. Consider `O=CN(O)C(CS(=O)(=O)N1CCc2ccccc2C1)c1cccnc1` (centres unmarked) [Example 10, N-[2-(3,4-dihydroisoquinolin-2(1H)-ylsulfonyl)-1-pyridin-3-ylethyl]-N-hydroxyformamide], for which the inhibition at 5 µM in assay [1] is 93%. With `COc1cc2c(cc1OC)CN(S(=O)(=O)CC(CCc1ccccc1)N(O)C=O)CC2` (centres unmarked) [Example 12, N-(1-{[(6,7-dimethoxy-3,4-dihydroisoquinolin-2(1H)-yl)sulfonyl]methyl}-3-phenylpropyl)-N-hydroxyformamide], the inhibition at 5 µM in assay [1] was 48%. For the compound `COc1ccc(C(CS(=O)(=O)N2CCc3ccccc3C2)N(O)C=O)cn1` (centres unmarked) [Example 13, N-[2-(3,4-dihydroisoquinolin-2(1H)-ylsulfonyl)-1-(6-methoxypyridin-3-yl)ethyl]-N-hydroxyformamide], in assay [1], the inhibition at 0.1 µM worked out at 28% and the inhibition at 5 µM is 96%. For `CC1(C)OC[C@H](C(CS(=O)(=O)N2Cc3ccccc3C2)N(O)C=O)O1` (stereo partly drawn) [Example 16, N-{2-(1,3-dihydro-2H-isoindol-2-ylsulfonyl)-1-[(4S)-2,2-dimethyl-1,3-dioxolan-4-yl]ethyl}-N-hydroxyformamide], testing at 3 mg/kg in assay [2] gave an inhibition in vivo of 44 ± 7%. Same read-out and setting: under `CC(C)c1ccc2c(c1)CCN(S(=O)(=O)CC([C@H]1COC(C)(C)O1)N(O)C=O)C2` (stereo partly drawn) [Example 18, N-{1-[(4S)-2,2-dimethyl-1,3-dioxolan-4-yl]-2-[(6-isopropyl-3,4-dihydroisoquinolin-2(1H)-yl)sulfonyl]ethyl}-N-hydroxyformamide] stands 39 ± 7%; under `CC1(C)OC[C@H](C(CS(=O)(=O)N2CCc3ccc(Cl)cc3C2)N(O)C=O)O1` (stereo partly drawn) [Example 19, N-{2-[(7-chloro-3,4-dihydroisoquinolin-2(1H)-yl)sulfonyl]-1-[(4S)-2,2-dimethyl-1,3-dioxolan-4-yl]ethyl}-N-hydroxyformamide], 62 ± 9%.

Take `O=CN(O)C(CS(=O)(=O)N1CCc2ccc(Cl)cc2C1)C1CCCC1` (centres unmarked) [Example 21, N-{2-[(7-chloro-3,4-dihydroisoquinolin-2(1H)-yl)sulfonyl]-1-cyclopentylethyl}-N-hydroxyformamide]: in assay [2], 3 mg/kg produced 43 ± 9% inhibition in vivo.

On to `O=CN(O)C(CS(=O)(=O)N1CCc2cc(C(F)(F)F)ccc2C1)C1CCCC1` (centres unmarked) [Example 25, N-(1-cyclopentyl-2-{[6-(trifluoromethyl)-3,4-dihydro-isoquinolin-2(1H)-yl]sulfonyl}ethyl)-N-hydroxyformamide], for which the inhibition in vivo (commonly the drop in the measured response relative to a control, in per cent) at 3 mg/kg in assay [2] came to 37 ± 7%. For the compound `O=CN(O)[C@H](CS(=O)(=O)N1CCc2ccc(C(F)(F)F)cc2C1)[C@H]1CCCO1` [Example 27, N-hydroxy-N-((1S)-1-[(2R)-tetrahydrofuran-2-yl]-2-{[7-(trifluoromethyl)-3,4-dihydroisoquinolin-2(1H)-yl]sulfonyl}ethyl)formamide], in assay [2], the inhibition in vivo at 3 mg/kg turned out to be 46 ± 9%. Still for that read-out and setting: the result for `CC1(C)OC[C@H](C(CS(=O)(=O)N2CCc3ccc(C(F)(F)F)cc3C2)N(O)C=O)O1` (stereo partly drawn) [Example 28, N-(1-[(4S)-2,2-dimethyl-1,3-dioxolan-4-yl]-2-{[7-(trifluoro-methyl)-3,4-dihydroisoquinolin-2(1H)-yl]sulfonyl}ethyl)-N-hydroxyformamide] reads 62 ± 5%; that for `O=CN(O)[C@H](CS(=O)(=O)N1Cc2ccc(F)cc2C1)[C@H]1CCCO1` [Example 29, N-{(1S)-2-[(5-fluoro-1,3-dihydro-2H-isoindol-2-yl)-sulfonyl]-1-[(2R)-tetrahydrofuran-2-yl]ethyl}-N-hydroxyformamide], 29 ± 11%; that for `CC(C)(Cc1ccccc1)C(CS(=O)(=O)N1CCc2cc(C(F)(F)F)ccc2C1)N(O)C=O` (centres unmarked) [Example 31, N-[2,2-dimethyl-3-phenyl-1-({[6-(trifluoromethyl)-3,4-dihydroisoquinolin-2(1H)-yl]sulfonyl}methyl)propyl]-N-hydroxyformamide], 31 ± 10%. `CCC(CC)C(CS(=O)(=O)N1CCc2cc(C(C)C)ccc2C1)N(O)C=O` (centres unmarked) [Example 35, N-(2-ethyl-1-{[(6-isopropyl-3,4-dihydroisoquinolin-2(1H)-yl)sulfonyl]methyl}butyl)-N-hydroxyformamide]: in assay [2], the inhibition in vivo at 3 mg/kg came out at 50 ± 8%. Still for that read-out and setting: the result for `CC(C)(C)CC(CS(=O)(=O)N1CCc2cc(Cl)c(Cl)cc2C1)N(O)C=O` (centres unmarked) [Example 42, N-(1-{[(6,7-dichloro-3,4-dihydroisoquinolin-2(1H)-yl)-sulfonyl]methyl}-3,3-dimethylbutyl)-N-hydroxyformamide] reads 40 ± 10%.

`O=CN(O)C(CO)CS(=O)(=O)N1CCc2cc(Cl)c(Cl)cc2C1` (centres unmarked) [Example 49, N-[2-[(6,7-dichloro-3,4-dihydroisoquinolin-2(1H)-yl)-sulfonyl]-1-(hydroxymethyl)ethyl]-N-hydroxyformamide] had an inhibition in vivo at 3 mg/kg in assay [2] of 16 ± 12%. The compound `CC(C)C(CS(=O)(=O)N1CCc2ccc(-c3ccc(F)cc3)cc2C1)N(O)C=O` (centres unmarked) [Example 50, N-[1-({[7-(4-fluorophenyl)-3,4-dihydroisoquinolin-2(1H)-yl]sulfonyl}methyl)-2-methylpropyl]-N-hydroxyformamide] registered an inhibition in vivo at 3 mg/kg in assay [2] of 32 ± 4%. In turn, `CC(C)(CS(=O)(=O)N1CCc2ccc(Br)cc2C1)N(O)C=O` [Example 56, N-{2-[(7-bromo-3,4-dihydroisoquinolin-2(1H)-yl)sulfonyl]-1,1-dimethylethyl}-N-hydroxyformamide] showed an inhibition in vivo at 3 mg/kg in assay [2] of 37 ± 8%. As for `O=CN(O)C(COCc1ccccc1)CS(=O)(=O)N1CCc2ccc(C(F)(F)F)cc2C1` (centres unmarked) [Example 59, N-[2-(benzyloxy)-1-({[7-(trifluoromethyl)-3,4-dihydro-isoquinolin-2(1H)-yl]sulfonyl}methyl)ethyl]-N-hydroxyformamide], the inhibition in vivo at 3 mg/kg in assay [2] came to 55 ± 9%. Still for that read-out and setting: under `O=CN(O)C(COc1ccccc1)CS(=O)(=O)N1CCc2ccc(Cl)cc2C1` (centres unmarked) [Example 61, N-[2-[(7-chloro-3,4-dihydroisoquinolin-2(1H)-yl)sulfonyl]-1-(phenoxymethyl)ethyl]-N-hydroxyformamide] stands 45 ± 9%. On to `O=CN(O)C1(CS(=O)(=O)N2CCc3ccc(Cl)cc3C2)CCCC1` [Example 62, N-(1-{[(7-chloro-3,4-dihydroisoquinolin-2(1H)-yl)-sulfonyl]methyl}cyclopentyl)-N-hydroxyformamide], for which the inhibition in vivo at 3 mg/kg in assay [2] is 20 ± 9%.

Consider `O=CN(O)C(CS(=O)(=O)N1CCc2ccc(-c3ccsc3)cc2C1)C1CCCC1` (centres unmarked) [Example 68, N-(1-cyclopentyl-2-{[7-(3-thienyl)-3,4-dihydroisoquinolin-2(1H)-yl]sulfonyl}ethyl)-N-hydroxyformamide], for which the inhibition in vivo at 3 mg/kg in assay [2] is 33 ± 7%. In turn, `O=CN(O)C(CS(=O)(=O)N1Cc2ccccc2C1)C1CC1` (centres unmarked) [Example 72, N-[1-cyclopropyl-2-(1,3-dihydro-2H-isoindol-2-ylsulfonyl)-ethyl]-N-hydroxyformamide] yielded an inhibition in vivo at 3 mg/kg in assay [2] of 41 ± 7%.

`O=CN(O)C(CS(=O)(=O)N1CCc2ccc(-c3ccc(F)cc3)cc2C1)C1CC1` (centres unmarked) [Example 75, N-(1-cyclopropyl-2-{[7-(4-fluorophenyl)-3,4-dihydro-isoquinolin-2(1H)-yl]sulfonyl}ethyl)-N-hydroxyformamide] had an inhibition in vivo at 3 mg/kg in assay [2] of 26 ± 11%. Same read-out and setting: under `O=CN(O)C(CCC(F)(F)F)CS(=O)(=O)N1CCc2ccc(Cl)cc2C1` (centres unmarked) [Example 76, N-(1-{[(7-chloro-3,4-dihydroisoquinolin-2(1H)-yl)-sulfonyl]methyl}-4,4,4-trifluorobutyl)-N-hydroxyformamide] stands 45 ± 11%; under `O=CN(O)C(CS(=O)(=O)N1CCc2ccc(-c3ccncc3)cc2C1)C1CCCC1` (centres unmarked) [Example 79, N-{1-cyclopentyl-2-[(7-pyridin-4-yl-3,4-dihydroisoquinolin-2(1H)-yl)sulfonyl]ethyl}-N-hydroxyformamide], 43 ± 10%.
